Experimental data as given in patent US20100047314A1 (OsteoGeneX Inc., priority 2008, published 2010).

How the values were obtained:
mouse = test: Mouse bone formation assay of SOST antagonist candidates, examined by micro-CT; type: in vivo; conditions: versus control solution
Source text: (§1) Compounds useful in the methods of the present invention can be identified via a variety of methods known to one of skill in the art. Several exemplary methods for identifying such antagonists are described herein, including cell-based and in vitro techniques (Journal of Bone and Mineral Research 2006, 21(11), 1738-1749). A general method of identifying SOST antagonists involves evaluating the effects of antagonist candidates on bone formation under controlled conditions. Preferably bone formation is determined using micro-CT techniques on live animals. Preferred animals include rodents, more preferred are primates. Femur, tibia and vertebrae bones are particularly useful subjects for such study.
Briefly, the test animal is treated with a predetermined dose of a SOST antagonist candidate. […]
Once the dosing schedule has been completed, both test and control animals are examined to determine the quantity of bone formation present. […] Where necessary, levels of bone formation can be calculated by determining the volume of bone formation present in each animal. […]
For example, the mouse test animal is treated with a predetermined dose of a SOST antagonist candidate for a complete dosing schedule. […] Once the dosing schedule has been completed, both test and control animals are examined with sacrifice using micro-CT to determine the quantity of bone formation present.

Wnt pathway = test: Modulation of the Wnt pathway (FIG. 1); conditions: doses of 2.5 ng (low), 60 ng (medium), 125 ng (high) and 1250 ng (very high)
Source text: as §1

male C57BL/6 mice [1] = test: Trabecular bone volume by micro-CT analysis on proximal tibia and lumbar L5; type: in vivo, mouse
Description: (§2) Four month old male C57BL/6 mice were treated daily with saline vehicle or the sclerostin inhibitor of calcium folinate at 10-100 mg/kg (via i.p) for 30 days. Study endpoints included a biochemical marker of bone formation; osteocalcin, measured by EIA Elisa, and measurement of trabecular bone volume by mico-CT analysis on the proximal tibia and Lumbar L5.

male C57BL/6 mice [2] = test: Serum osteocalcin bone formation marker by EIA Elisa in mice treated 30 days; type: in vivo, mouse; conditions: 100 mg/kg i.p. daily for 30 days, four month old male C57BL/6 mice
Description: as §2

| Compound | quantity of bone formation (promotion of bone growth) (mouse) | modulation of the Wnt pathway to promote bone growth (Wnt pathway) | increase in bone volume for the tibia over baseline controls (male C57BL/6 mice [1]; 10 mg/kg i.p. daily for 30 days, proximal tibia, micro-CT) | increase in bone volume for lumbar L5 over controls (male C57BL/6 mice [1]; 100 mg/kg i.p. daily for 30 days, lumbar L5, micro-CT) | percent increase in serum osteocalcin bone formation marker over saline controls (male C57BL/6 mice [2]) |
| --- | --- | --- | --- | --- | --- |
| Nc1nc(=O)c2c([nH]1)NCC(CNc1ccc(C(=O)NC(CCC(=O)O)C(=O)O)cc1)N2C=O (centres unmarked) [folinic acid] | promoting bone growth | modulating the Wnt pathway to promote bone growth | – | – | – |
| Nc1nc(=O)c2c([nH]1)NCC(CNc1ccc(C(=O)N[C@@H](CCC(=O)[O-])C(=O)[O-])cc1)N2C=O.[Ca+2] (some centres unmarked) [calcium folinate] | – | – | greater than 37% | 51% | 41% |
